Assay results taken from patent publication US20150258059A1, “ANTIMICROBIAL AND RADIOPROTECTIVE COMPOUNDS” (BioDiem, Ltd, priority 2001, published 2015).
Values after ≈ are worked out from the molar mass of the structure shown. Where two headings read alike, the source gives them in different places.

Assays:
[1] = system: Enterobacter aerogenes B-679; test: Sensitivity of strains: suppression of growth; assay type: cell-based; conditions: Compound (1) 1.0%; antibiotics disc method
[2] = system: Staphylococcus aureus M-12159; test: Sensitivity of strains: suppression of growth; assay type: cell-based; conditions: Compound (1) 1.0%; antibiotics disc method
[3] = system: Staphylococcus epidermidis BK-30; test: Sensitivity of strains: suppression of growth; assay type: cell-based; conditions: Compound (1) 1.0%; antibiotics disc method
[4] = system: Klebsiella pneumoniae M-248; test: Sensitivity of strains: suppression of growth; assay type: cell-based; conditions: Compound (1) 1.0%; antibiotics disc method
[5] = system: Pseudomonas aeruginosa B-601; test: Sensitivity of strains: suppression of growth; assay type: cell-based; conditions: Compound (1) 1.0%; antibiotics disc method
[6] = system: γ-hemolytic streptococcus B-672; test: Sensitivity of strains: suppression of growth; assay type: cell-based; conditions: Compound (1) 1.0%; antibiotics disc method
[7] = system: Yersinia pseudotuberculosis; assay type: cell-based; conditions: Compound (1) 1.0%; antibiotics disc method
[8] = system: Staphylococcus aureus B-674; test: Sensitivity of strains: suppression of growth; assay type: cell-based; conditions: Compound (1) 1.0%; antibiotics disc method
[9] = system: Conditional pathogenic enterobacteria gram-negative aerobic bacilli; assay type: cell-based; further: key: + sensitive strains; + moderately sensitive strains; − stable strains
Alkaligenes sp. B-667 = test: Sensitivity of strains: suppression of growth; assay type: cell-based; conditions: Compound (1) 1.0%; antibiotics disc method
[10] = system: Salmonella typhimurium M-727; test: Sensitivity of strains: suppression of growth; assay type: cell-based; conditions: Compound (1) 1.0%; antibiotics disc method
[11] = system: Neisseria meningitidis M-6231; test: Sensitivity of strains: suppression of growth; assay type: cell-based; conditions: Compound (1) 1.0%; antibiotics disc method
Acinetobacter B-677 = test: Sensitivity of strains: suppression of growth; assay type: cell-based; conditions: Compound (1) 1.0%; antibiotics disc method
Acinetobacter B-676 = test: Sensitivity of strains: suppression of growth; assay type: cell-based; conditions: Compound (1) 1.0%; antibiotics disc method
[12] = system: Neisseria meningitidis M-A72; test: Sensitivity of strains: suppression of growth; assay type: cell-based; conditions: Compound (1) 1.0%; antibiotics disc method
Shigella sonnei B-720 = test: Sensitivity of strains: suppression of growth; assay type: cell-based; conditions: Compound (1) 1.0%; antibiotics disc method
[13] = system: β-hemolytic streptococcus B-624; test: Sensitivity of strains: suppression of growth; assay type: cell-based; conditions: Compound (1) 1.0%; antibiotics disc method
Escherichia coli M-17 = test: Sensitivity of strains: suppression of growth; assay type: cell-based; conditions: Compound (1) 1.0%; antibiotics disc method
Bacillus sp. B-575 = test: Sensitivity of strains: suppression of growth; assay type: cell-based; conditions: Compound (1) 1.0%; antibiotics disc method; further: key: + sensitive strains; + moderately sensitive strains; − stable strains
[14] = system: Staphylococcus aureus M-209; test: Sensitivity of strains: suppression of growth; assay type: cell-based; conditions: Compound (1) 1.0%; antibiotics disc method
[15] = system: Corynebacterium diphtheriae B-670; test: Sensitivity of strains: suppression of growth; assay type: cell-based; conditions: Compound (1) 1.0%; antibiotics disc method
[16] = system: Salmonella paratyphi M-16469; test: Sensitivity of strains: suppression of growth; assay type: cell-based; conditions: Compound (1) 1.0%; antibiotics disc method
Escherichia coli B-65 = test: Sensitivity of strains: suppression of growth; assay type: cell-based; conditions: Compound (1) 1.0%; antibiotics disc method
[17] = system: Klebsiella pneumoniae M-A21; test: Sensitivity of strains: suppression of growth; assay type: cell-based; conditions: Compound (1) 1.0%; antibiotics disc method
Acinetobacter B-681 = test: Sensitivity of strains: suppression of growth; assay type: cell-based; conditions: Compound (1) 1.0%; antibiotics disc method
[18] = system: Staphylococcus aureus B-685; test: Sensitivity of strains: suppression of growth; assay type: cell-based; conditions: Compound (1) 1.0%; antibiotics disc method
Escherichia coli B-683 = test: Sensitivity of strains: suppression of growth; assay type: cell-based; conditions: Compound (1) 1.0%; antibiotics disc method
[19] = system: Enterobacter aerogenes B-687; test: Sensitivity of strains: suppression of growth; assay type: cell-based; conditions: Compound (1) 1.0%; antibiotics disc method
[20] = system: Staphylococci epidermidis D-513; test: Sensitivity of strains: suppression of growth; assay type: cell-based; conditions: Compound (1) 1.0%; antibiotics disc method
Alkaligenes sp. B-689 = test: Sensitivity of strains: suppression of growth; assay type: cell-based; conditions: Compound (1) 1.0%; antibiotics disc method
[21] = system: Shigella flexneri M-2A6907; test: Sensitivity of strains: suppression of growth; assay type: cell-based; conditions: Compound (1) 1.0%; antibiotics disc method
[22] = system: Citrobacter diversus B-678; test: Sensitivity of strains: suppression of growth; assay type: cell-based; conditions: Compound (1) 1.0%; antibiotics disc method
Mycobact tub. H.37RV = test: Anti-TB effect, serial double dilution in liquid medium; assay type: cell-based, M tuberculosis; conditions: 10-14 days incubation at 37° C.; read-out: Minimal Inhibitory Concentration
[23] = system: Staphylococcus aureus ATCC 29213; test: NCCLS broth microdilution MIC/MBC; assay type: cell-based; conditions: for MIC: Staphylococcus aureus, ATCC29213
Serratia marcescens RMIT = test: NCCLS broth microdilution MIC/MBC; assay type: cell-based; conditions: for MIC: Serratia marcescens
Proteus vulgaris RMIT = test: NCCLS broth microdilution MIC/MBC; assay type: cell-based; conditions: for MIC: Proteus vulgaris
[24] = system: Escherichia coli ATCC 25922; test: NCCLS broth microdilution MIC/MBC; assay type: cell-based; conditions: for MIC: Escherichia coli, ATCC25922
[25] = system: Pseudomonas aeruginosa ATCC 27853; test: NCCLS broth microdilution MIC/MBC; assay type: cell-based; conditions: for MIC: Pseudomonas aeruginosa, ATCC27853
[26] = in vivo; cited from earlier work
[27] = Table 9, 35° C., 24 hours, read-out: MIC
[28] = Table 17, 2 or 3 replicates, read-out: MIC

## CCC[C@@H]1C[C@@H](C(=O)N[C@@H]([C@H]2O[C@H](SC)[C@H](O)[C@@H](O)[C@H]2O)[C@@H](C)O)N(C)C1 [Antibiotic 6, lincomycin]
[1]
  Suppression of Growth (+/−): −
[2]
  Suppression of Growth (+/−): −
[3]
  Suppression of Growth (+/−): −
[4]
  Suppression of Growth (+/−): −
[5]
  Suppression of Growth (+/−): −
[6]
  Suppression of Growth (+/−): −
[7]
  Suppression of Growth (+/−): −
[8]
  Suppression of Growth (+/−): −
[9]
  Suppression of Growth (+/−): −
Alkaligenes sp. B-667
  Suppression of Growth (+/−): −
[10]
  Suppression of Growth (+/−): −
[11]
  Suppression of Growth (+/−): −
Acinetobacter B-677
  Suppression of Growth (+/−): −
Acinetobacter B-676
  Suppression of Growth (+/−): −
[12]
  Suppression of Growth (+/−): −
Shigella sonnei B-720
  Suppression of Growth (+/−): −
[13]
  Suppression of Growth (+/−): −
Escherichia coli M-17
  Suppression of Growth (+/−): −
Bacillus sp. B-575
  Suppression of Growth (+/−): +
[14]
  Suppression of Growth (+/−): −
[15]
  Suppression of Growth (+/−): −
[16]
  Suppression of Growth (+/−): −
Escherichia coli B-65
  Suppression of Growth (+/−): +
[17]
  Suppression of Growth (+/−): −
Acinetobacter B-681
  Suppression of Growth (+/−): −
[18]
  Suppression of Growth (+/−): −
Escherichia coli B-683
  Suppression of Growth (+/−): −
[19]
  Suppression of Growth (+/−): −
[20]
  Suppression of Growth (+/−): +
Alkaligenes sp. B-689
  Suppression of Growth (+/−): −
[21]
  Suppression of Growth (+/−): −
[22]
  Suppression of Growth (+/−): −

## CO[C@H]1/C=C/O[C@@]2(C)Oc3c(C)c(O)c4c(O)c(c(/C=N/N5CCN(C)CC5)c(O)c4c3C2=O)NC(=O)/C(C)=C\C=C\[C@H](C)[C@H](O)[C@@H](C)[C@@H](O)[C@@H](C)[C@H](OC(C)=O)[C@@H]1C [Antibiotic 10, rifampicin]
[1]
  Suppression of Growth (+/−): −
[2]
  Suppression of Growth (+/−): +
Mycobact tub. H.37RV
  MIC: 0.01 to 0.02 µg/mL (≈ 0.0122 to 0.0243 µM)
[3]
  Suppression of Growth (+/−): +
[4]
  Suppression of Growth (+/−): −
[5]
  Suppression of Growth (+/−): −
[6]
  Suppression of Growth (+/−): −
[7]
  Suppression of Growth (+/−): −
[8]
  Suppression of Growth (+/−): −
[9]
  Suppression of Growth (+/−): −
Alkaligenes sp. B-667
  Suppression of Growth (+/−): +
[11]
  Suppression of Growth (+/−): −
Acinetobacter B-677
  Suppression of Growth (+/−): +
Acinetobacter B-676
  Suppression of Growth (+/−): +
[12]
  Suppression of Growth (+/−): −
[13]
  Suppression of Growth (+/−): +
Escherichia coli M-17
  Suppression of Growth (+/−): −
[14]
  Suppression of Growth (+/−): +
[15]
  Suppression of Growth (+/−): +
[16]
  Suppression of Growth (+/−): −
Escherichia coli B-65
  Suppression of Growth (+/−): −
[17]
  Suppression of Growth (+/−): −
Acinetobacter B-681
  Suppression of Growth (+/−): +
[18]
  Suppression of Growth (+/−): +
Escherichia coli B-683
  Suppression of Growth (+/−): −
[19]
  Suppression of Growth (+/−): −
[20]
  Suppression of Growth (+/−): +
Alkaligenes sp. B-689
  Suppression of Growth (+/−): −
[22]
  Suppression of Growth (+/−): −

## [H]/N=C(/N)N[C@H]1[C@H](O)[C@@H](O)[C@H](O[C@@H]2O[C@@H](C)[C@](O)(C=O)[C@H]2O[C@@H]2O[C@@H](CO)[C@H](O)[C@@H](O)[C@@H]2NC)[C@@H](N/C(N)=N\[H])[C@@H]1O [Antibiotic 12, streptomycin]
[1]
  Suppression of Growth (+/−): −
[2]
  Suppression of Growth (+/−): +
Mycobact tub. H.37RV
  MIC: 0.5 µg/mL (≈ 0.86 µM)
[3]
  Suppression of Growth (+/−): −
[4]
  Suppression of Growth (+/−): −
[6]
  Suppression of Growth (+/−): −
[7]
  Suppression of Growth (+/−): −
[9]
  Suppression of Growth (+/−): −
Alkaligenes sp. B-667
  Suppression of Growth (+/−): −
[11]
  Suppression of Growth (+/−): −
Acinetobacter B-677
  Suppression of Growth (+/−): −
Acinetobacter B-676
  Suppression of Growth (+/−): −
[12]
  Suppression of Growth (+/−): −
[13]
  Suppression of Growth (+/−): −
[14]
  Suppression of Growth (+/−): +
[15]
  Suppression of Growth (+/−): −
[17]
  Suppression of Growth (+/−): −
Acinetobacter B-681
  Suppression of Growth (+/−): −
[18]
  Suppression of Growth (+/−): +
[19]
  Suppression of Growth (+/−): −
[20]
  Suppression of Growth (+/−): −

## CCCCCCCCCCCCCCCC[N+](C)(C)C.[Br-] [CTAB, cetyl trimethyl ammonium bromide]
[23]
  MIC: 16 µg/mL
[23]; Table 17, 2 or 3 replicates
  MMC: 32 µg/mL
Serratia marcescens RMIT
  MIC: 128 µg/mL
Serratia marcescens RMIT; Table 17, 2 or 3 replicates
  MMC: 128 µg/mL
Proteus vulgaris RMIT
  MIC: 128 µg/mL
Proteus vulgaris RMIT; Table 17, 2 or 3 replicates
  MMC: 256 µg/mL
[24]
  MIC: 16 µg/mL
[24]; Table 17, 2 or 3 replicates
  MMC: 16 µg/mL
[25]
  MIC: 512 µg/mL
[25]; Table 17, 2 or 3 replicates
  MMC: >512 µg/mL

## [H]/N=C(\N/C(=N/[H])NCCCCCCNC(=N)NC(=N)Nc1ccc(Cl)cc1)Nc1ccc(Cl)cc1 [Chlorhexidine]
[23]; [27]
  MIC: 2 µg/mL (≈ 3.96 µM)
[23]; [28]
  MIC: 2 µg/mL (≈ 3.96 µM)
[23]; Table 9, 35° C., 24 hours
  MMC: 8 µg/mL
[23]; Table 17, 2 or 3 replicates
  MMC: 8 µg/mL
Serratia marcescens RMIT; [27]
  MIC: 16 µg/mL (≈ 31.7 µM)
Serratia marcescens RMIT; [28]
  MIC: 16 µg/mL (≈ 31.7 µM)
Serratia marcescens RMIT; Table 9, 35° C., 24 hours
  MMC: 32 µg/mL
Serratia marcescens RMIT; Table 17, 2 or 3 replicates
  MMC: 32 µg/mL
Proteus vulgaris RMIT; [27]
  MIC: 6 µg/mL (≈ 11.9 µM)
Proteus vulgaris RMIT; [28]
  MIC: 6 µg/mL (≈ 11.9 µM)
Proteus vulgaris RMIT; Table 9, 35° C., 24 hours
  MMC: 128 µg/mL
Proteus vulgaris RMIT; Table 17, 2 or 3 replicates
  MMC: 128 µg/mL
[24]; [27]
  MIC: 2 µg/mL (≈ 3.96 µM)
[24]; [28]
  MIC: 2 µg/mL (≈ 3.96 µM)
[24]; Table 9, 35° C., 24 hours
  MMC: 4 µg/mL
[24]; Table 17, 2 or 3 replicates
  MMC: 4 µg/mL
[25]; [27]
  MIC: 32 µg/mL (≈ 63.3 µM)
[25]; [28]
  MIC: 32 µg/mL (≈ 63.3 µM)
[25]; Table 9, 35° C., 24 hours
  MMC: 64 µg/mL
[25]; Table 17, 2 or 3 replicates
  MMC: 64 µg/mL

## CC[C@@H](CO)NCCN[C@@H](CC)CO [Ethambutol]
Mycobact tub. H.37RV
  MIC: 1 to 2.5 µg/mL (≈ 4.89 to 12.2 µM)

## NNC(=O)c1ccncc1 [Isoniazid]
Mycobact tub. H.37RV
  MIC: 0.02 to 0.1 µg/mL (≈ 0.146 to 0.729 µM)

## NCCSSCCN [cystamine]
[26]
  index of protection: ≤ 1.45
  side effect: causes diarrhea

## NCCS [mercamine, β-mercaptoethylamine]
[26]
  duration of radiation protecting activity: 15 to 30 min
  period of action: 0.5 to 1 h
